Measured values taken from patent US10750743B2, “Pyridazinone herbicides” (E.I. DU PONT DE NEMOURS AND COMPANY, priority 2015, dated 2020).

Assays:
Type in all cases: in vivo
[1] = test system: foxtail, giant (giant foxtail, Setaria faberii); test: Test A preemergence, directed soil spray, visual injury rating; conditions: Setaria faberi, pre-emergence, 240 h, 0 is no effect, 100 is complete control, read-out: Plant response rating (0 to 100 scale), Foxtail, Giant; for pest or weed control at 125 g/ha: 125 g ai/ha
Summary of the method: (§1)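 Seeds sown in a loam soil–sand blend received a directed preemergence soil spray of test chemical in a non-phytotoxic solvent mixture with surfactant. Postemergence plants were sprayed at 2 to 10 cm, one- to two-leaf stage. After approximately 10 d in greenhouse, injury was visually rated 0 (no effect) to 100 (complete control) against untreated controls.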

[2] = test system: ragweed (common ragweed, Ambrosia elatior); test: as above; conditions: Ambrosia artemisiifolia, pre-emergence, 240 h, 0 is no effect, 100 is complete control, read-out: Plant response rating (0 to 100 scale), Ragweed; for pest or weed control at 125 g/ha: 125 g ai/ha
Summary of the method: as §1

[3] = test system: pigweed (Amaranthus retroflexus); test: as above; conditions: Amaranthus retroflexus, pre-emergence, 240 h, 0 is no effect, 100 is complete control, read-out: Plant response rating (0 to 100 scale), Pigweed; for pest or weed control at 125 g/ha: 125 g ai/ha
Summary of the method: as §1

[4] = test system: ryegrass, It. (Italian ryegrass, Lolium multiflorum); test: as above; conditions: Lolium multiflorum, pre-emergence, 240 h, 0 is no effect, 100 is complete control, read-out: Plant response rating (0 to 100 scale), Ryegrass, It.; for pest or weed control at 125 g/ha: 125 g ai/ha
Summary of the method: as §1

[5] = test system: barnyardgrass (Echinochloa crus-galli); test: as above; conditions: Echinochloa crus-galli, pre-emergence, 240 h, 0 is no effect, 100 is complete control, read-out: Plant response rating (0 to 100 scale), Barnyardgrass; for pest or weed control at 125 g/ha: 125 g ai/ha
Summary of the method: as §1

kochia (Kochia scoparia) = test: as above; conditions: Bassia scoparia, pre-emergence, 240 h, 0 is no effect, 100 is complete control, read-out: Plant response rating (0 to 100 scale), Kochia; for pest or weed control at 125 g/ha: 125 g ai/ha
Summary of the method: as §1

rice (Oryza sativa) = test: Test B flooded paddy test, visual rating; conditions: Oryza sativa, 360 h; Flood, 250 g ai/ha, applied to paddy water, rated after 13 to 15 d; read-out: Rice plant response rating (0 to 100 scale, 0 is no effect, 100 is complete control)
Summary of the method: (§2)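 Plants at the 2-leaf stage were flooded to 3 cm above soil, and test compounds were applied directly into the paddy water, which was held at that depth throughout. After 13 to 15 d in a greenhouse, injury was rated visually against untreated controls on a 0–100 scale (0 no effect, 100 complete control).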

[6] = test system: sedge, umbrella (small-flower umbrella sedge, Cyperus difformis); test: Test B flooded paddy test, visual rating; conditions: Cyperus difformis, 360 h; Flood, 250 g ai/ha, applied to paddy water, rated after 13 to 15 d; read-out: Sedge, Umbrella plant response rating (0 to 100 scale, 0 is no effect, 100 is complete control)
Summary of the method: as §2

[7] = test system: ducksalad (Heteranthera limosa); test: Test B flooded paddy test, visual rating; conditions: Heteranthera limosa, 360 h; Flood, 250 g ai/ha, applied to paddy water, rated after 13 to 15 d; read-out: Ducksalad plant response rating (0 to 100 scale, 0 is no effect, 100 is complete control)
Summary of the method: as §2

[8] = test system: barnyardgrass (Echinochloa crus-galli); test: Test B flooded paddy test, visual rating; conditions: Echinochloa crus-galli, 360 h; Flood, 250 g ai/ha, applied to paddy water, rated after 13 to 15 d; read-out: Barnyardgrass plant response rating (0 to 100 scale, 0 is no effect, 100 is complete control)
Summary of the method: as §2

[9] = test system: galium (catchweed bedstraw, Galium aparine); test: Test A postemergence application, visual injury rating; conditions: for pest or weed control at 125 g/ha: 125 g ai/ha
Summary of the method: as §1

[10] = test system: blackgrass (Alopecurus myosuroides); test: as above; conditions: Alopecurus myosuroides, post-emergence, 240 h, 0 to 100 scale, 0 no effect, 100 complete control, read-out: Blackgrass plant response rating; for pest or weed control at 125 g/ha: 125 g ai/ha
Summary of the method: as §1

[11] = test system: ragweed (common ragweed, Ambrosia elatior); test: as above; conditions: for pest or weed control at 125 g/ha: 125 g ai/ha
Summary of the method: as §1

[12] = test system: wheat (Triticum aestivum); test: as above; conditions: for plant injury at 125 g/ha: 125 g ai/ha
Summary of the method: as §1

[13] = test system: pigweed (Amaranthus retroflexus); test: as above; conditions: for pest or weed control at 125 g/ha: 125 g ai/ha
Summary of the method: as §1

[14] = test system: ryegrass, It. (Italian ryegrass, Lolium multiflorum); test: as above; conditions: for pest or weed control at 125 g/ha: 125 g ai/ha
Summary of the method: as §1

corn (Zea mays) = test: as above; conditions: for plant injury at 125 g/ha: 125 g ai/ha
Summary of the method: as §1

[15] = test system: barnyardgrass (Echinochloa crus-galli); test: as above; conditions: Echinochloa crus-galli, post-emergence, 240 h, 0 to 100 scale, 0 no effect, 100 complete control, read-out: Barnyardgrass plant response rating; for pest or weed control at 125 g/ha: 125 g ai/ha
Summary of the method: as §1

[16] = Galium, post-emergence, 240 h, 0 to 100 scale, 0 no effect, 100 complete control, read-out: Galium plant response rating
[17] = Ambrosia artemisiifolia, post-emergence, 240 h, 0 to 100 scale, 0 no effect, 100 complete control, read-out: Ragweed plant response rating
[18] = Triticum aestivum, post-emergence, 240 h, 0 to 100 scale, 0 no effect, 100 complete control, read-out: Wheat plant response rating
[19] = Amaranthus retroflexus, post-emergence, 240 h, 0 to 100 scale, 0 no effect, 100 complete control, read-out: Pigweed plant response rating
[20] = Lolium multiflorum, post-emergence, 240 h, 0 to 100 scale, 0 no effect, 100 complete control, read-out: Ryegrass, It. plant response rating
[21] = Zea mays, post-emergence, 240 h, 0 to 100 scale, 0 no effect, 100 complete control, read-out: Corn plant response rating
[22] = 31 g ai/ha, 0 is no effect, 100 is complete control

Compound: Cc1nn(C)c(=O)c(-c2cccc3snc(C)c23)c1O [Compound 25, 5-hydroxy-2,6-dimethyl-4-(3-methyl-1,2-benzisothiazol-4-yl)-3 (2H)-pyridazinone]
- pest or weed control at 125 g/ha [1]: 30%
- pest or weed control at 500 g/ha ([1]; 500 g ai/ha): 80%
- pest or weed control at 125 g/ha [2]: 40%
- pest or weed control at 500 g/ha ([2]; 500 g ai/ha): 70%
- pest or weed control at 125 g/ha [3]: 80%
- pest or weed control at 500 g/ha ([3]; 500 g ai/ha): 100%
- pest or weed control at 125 g/ha [4]: 0%
- pest or weed control at 500 g/ha ([4]; 500 g ai/ha): 30%
- pest or weed control at 125 g/ha [5]: 0%
- pest or weed control at 500 g/ha ([5]; 500 g ai/ha): 40%
- pest or weed control at 125 g/ha (kochia (Kochia scoparia)): 100%
- pest or weed control at 500 g/ha (kochia (Kochia scoparia); 500 g ai/ha): 100%
- plant injury at 250 g/ha (rice (Oryza sativa)): 0%
- pest or weed control at 250 g/ha [6]: 0%
- pest or weed control at 250 g/ha [7]: 0%
- pest or weed control at 250 g/ha [8]: 0%
- pest or weed control at 125 g/ha [9, 16]: 80%
- pest or weed control at 500 g/ha ([9]; Galium, post-emergence, 240 h, 500 g ai/ha, 0 to 100 scale, 0 no effect, 100 complete control, read-out: Galium plant response rating): 90%
- pest or weed control at 125 g/ha [10]: 20%
- pest or weed control at 500 g/ha ([10]; 500 g ai/ha): 30%
- pest or weed control at 125 g/ha [11, 17]: 70%
- pest or weed control at 500 g/ha ([11]; Ambrosia artemisiifolia, post-emergence, 240 h, 500 g ai/ha, 0 to 100 scale, 0 no effect, 100 complete control, read-out: Ragweed plant response rating): 90%
- plant injury at 125 g/ha [12, 18]: 20%
- plant injury at 500 g/ha ([12]; Triticum aestivum, post-emergence, 240 h, 500 g ai/ha, 0 to 100 scale, 0 no effect, 100 complete control, read-out: Wheat plant response rating): 30%
- pest or weed control at 125 g/ha [13, 19]: 90%
- pest or weed control at 500 g/ha ([13]; Amaranthus retroflexus, post-emergence, 240 h, 500 g ai/ha, 0 to 100 scale, 0 no effect, 100 complete control, read-out: Pigweed plant response rating): 90%
- pest or weed control at 125 g/ha [14, 20]: 20%
- pest or weed control at 500 g/ha ([14]; Lolium multiflorum, post-emergence, 240 h, 500 g ai/ha, 0 to 100 scale, 0 no effect, 100 complete control, read-out: Ryegrass, It. plant response rating): 70%
- plant injury at 125 g/ha (corn (Zea mays); [21]): 0%
- plant injury at 500 g/ha (corn (Zea mays); Zea mays, post-emergence, 240 h, 500 g ai/ha, 0 to 100 scale, 0 no effect, 100 complete control, read-out: Corn plant response rating): 20%
- pest or weed control at 125 g/ha [15]: 20%
- pest or weed control at 500 g/ha ([15]; 500 g ai/ha): 40%

Compound: COc1c(C)nn(C)c(=O)c1-c1ccc(F)c2ccoc12 [Compound 69, 4-(4-fluoro-7-benzofuranyl)-5-methoxy-2,6-dimethyl-3(2H)-pyridazinone]
- pest or weed control at 31 g/ha ([1]; 31 g ai/ha): 0%
- pest or weed control at 125 g/ha [1]: 0%
- pest or weed control at 31 g/ha ([2]; 31 g ai/ha): 0%
- pest or weed control at 125 g/ha [2]: 0%
- pest or weed control at 31 g/ha ([3]; 31 g ai/ha): 0%
- pest or weed control at 125 g/ha [3]: 0%
- pest or weed control at 31 g/ha ([4]; 31 g ai/ha): 0%
- pest or weed control at 125 g/ha [4]: 0%
- pest or weed control at 31 g/ha ([5]; 31 g ai/ha): 0%
- pest or weed control at 125 g/ha [5]: 0%
- pest or weed control at 31 g/ha (kochia (Kochia scoparia); 31 g ai/ha): 0%
- pest or weed control at 125 g/ha (kochia (Kochia scoparia)): 0%
- plant injury at 250 g/ha (rice (Oryza sativa)): 0%
- pest or weed control at 250 g/ha [6]: 0%
- pest or weed control at 250 g/ha [7]: 0%
- pest or weed control at 250 g/ha [8]: 0%
- Plant response rating (0 to 100 scale), Galium [9, 22]: 0
- pest or weed control at 125 g/ha [9, 16]: 0%
- pest or weed control at 31 g/ha ([10]; 31 g ai/ha): 0%
- pest or weed control at 125 g/ha [10]: 0%
- Plant response rating (0 to 100 scale), Ragweed [11, 22]: 0
- pest or weed control at 125 g/ha [11, 17]: 0%
- Plant response rating (0 to 100 scale), Wheat [12, 22]: 0
- plant injury at 125 g/ha [12, 18]: 0%
- Plant response rating (0 to 100 scale), Pigweed [13, 22]: 0
- pest or weed control at 125 g/ha [13, 19]: 0%
- Plant response rating (0 to 100 scale), Ryegrass, It. [14, 22]: 0
- pest or weed control at 125 g/ha [14, 20]: 0%
- Plant response rating (0 to 100 scale), Corn (corn (Zea mays); [22]): 0
- plant injury at 125 g/ha (corn (Zea mays); [21]): 0%
- pest or weed control at 31 g/ha ([15]; 31 g ai/ha): 0%
- pest or weed control at 125 g/ha [15]: 0%
